From US5945422A, “N-oxides of amino containing pyrido [2,3-D] pyrimidines” (Warner-Lambert Company, priority 1998, dated 1999)

What was measured:
Type in all cases: biochemical
[1] = target: T1, mouse PDGF-β receptor tyrosine kinase (Mus musculus, UniProt P05622); test: PDGF receptor tyrosine kinase assay (PDGFr-TK); details: 10 min at 25° C., glutamate-tyrosine co-polymer substrate; read-out: PDGFr-TK inhibition, IC50
T1 construct: amplify a fragment of DNA that codes for the intracellular tyrosine kinase domain; made in house; host or cells: SF9 insect cells, baculovirus (cell lysate used)
T1 sequence (P05622 599-961 limits assumed): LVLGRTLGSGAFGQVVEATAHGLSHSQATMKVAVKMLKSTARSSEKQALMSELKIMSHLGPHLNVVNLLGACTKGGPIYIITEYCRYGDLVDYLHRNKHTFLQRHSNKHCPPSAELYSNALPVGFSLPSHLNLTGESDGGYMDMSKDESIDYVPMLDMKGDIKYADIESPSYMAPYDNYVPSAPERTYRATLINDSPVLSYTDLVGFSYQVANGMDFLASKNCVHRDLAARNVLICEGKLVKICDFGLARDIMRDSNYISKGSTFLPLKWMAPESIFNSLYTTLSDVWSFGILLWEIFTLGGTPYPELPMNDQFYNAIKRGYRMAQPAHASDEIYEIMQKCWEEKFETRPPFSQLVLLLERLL
Description: SF9 insect cells were infected with the virus to overexpress the protein, and the cell lysate was used for the assay. […] The reaction was terminated by the addition of 100 μL of 30% trichloroacetic acid (TCA) containing 20 mM sodium pyrophosphate and precipitation of material onto glass fiber filter mats (Wallac). […] Nonspecific activity was defined as radioactivity retained on the filters following incubation of samples with buffer alone (no enzyme). Specific enzymatic activity was defined as total activity (enzyme plus buffer) minus nonspecific activity.

[2] = target: T2, human FGF-1 (flg) receptor tyrosine kinase (Homo sapiens, UniProt P11362); test: FGF receptor tyrosine kinase assay (FGFr-TK); details: 10 min at 25° C., glutamate-tyrosine co-polymer substrate; read-out: FGFr-TK inhibition, IC50
T2 construct: amplify a fragment of DNA that codes for the intracellular tyrosine kinase domain; made in house; host or cells: SF9 insect cells, baculovirus (cell lysate used)
T2 sequence (P11362 478-767 limits assumed): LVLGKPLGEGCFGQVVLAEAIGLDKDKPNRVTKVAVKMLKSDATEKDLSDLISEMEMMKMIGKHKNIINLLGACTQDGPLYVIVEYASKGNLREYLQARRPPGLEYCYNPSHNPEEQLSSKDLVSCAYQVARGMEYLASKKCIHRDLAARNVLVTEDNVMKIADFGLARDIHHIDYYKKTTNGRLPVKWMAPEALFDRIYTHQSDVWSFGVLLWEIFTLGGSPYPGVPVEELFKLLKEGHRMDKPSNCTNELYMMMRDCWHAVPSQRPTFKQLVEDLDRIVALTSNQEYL
Excerpt: PDGF and FGF Receptor Tyrosine Kinase Assays
Full length cDNAs for the mouse PDGF-β and human FGF-1 (flg) receptor tyrosine kinases were obtained from J. Escobedo and prepared as described in J. Biol. Chem., 262:1482-1487 […], and PCR primers were designed to amplify a fragment of DNA that codes for the intracellular tyrosine kinase domain. The fragment was melded into a baculovirus vector, cotransfected with AcMNPV DNA, and the recombinant virus isolated. SF9 insect cells were infected with the virus to overexpress the protein, and the cell lysate was used for the assay. […] Briefly, to each well was added 82.5 μL of incubation buffer containing 25 mM Hepes (pH 7.0), 150 mM NaCl, 0.1% Triton X-100, 0.2 mM PMSF, 0.2 mM Na3 VO4, 10 mM MnCl2, and 750 μg/mL of Poly (4:1) glutamate-tyrosine followed by 2.5 μL of inhibitor and 5 μL of enzyme lysate (7.5 μg/μL FGF-TK or 6.0 μg/μL PDGF-TK) to initiate the reaction. Following a 10 minute incubation at 25° C., 10 μL of γ^32 P-ATP (0.4 μCi plus 50 μM ATP) was added to each well and samples were incubated for an additional 10 minutes at 25° C. […] Nonspecific activity was defined as radioactivity retained on the filters following incubation of samples with buffer alone (no enzyme). […]

C-src kinase = target: T3, C-src kinase (Homo sapiens, UniProt P12931); test: C-src kinase assay; details: poly GluTyr substrate, 10 min, room temperature; read-out: C-src TK inhibition, IC50
T3 construct: made in house; host or cells: baculovirus infected insect cells
T3 sequence (P12931 whole entry): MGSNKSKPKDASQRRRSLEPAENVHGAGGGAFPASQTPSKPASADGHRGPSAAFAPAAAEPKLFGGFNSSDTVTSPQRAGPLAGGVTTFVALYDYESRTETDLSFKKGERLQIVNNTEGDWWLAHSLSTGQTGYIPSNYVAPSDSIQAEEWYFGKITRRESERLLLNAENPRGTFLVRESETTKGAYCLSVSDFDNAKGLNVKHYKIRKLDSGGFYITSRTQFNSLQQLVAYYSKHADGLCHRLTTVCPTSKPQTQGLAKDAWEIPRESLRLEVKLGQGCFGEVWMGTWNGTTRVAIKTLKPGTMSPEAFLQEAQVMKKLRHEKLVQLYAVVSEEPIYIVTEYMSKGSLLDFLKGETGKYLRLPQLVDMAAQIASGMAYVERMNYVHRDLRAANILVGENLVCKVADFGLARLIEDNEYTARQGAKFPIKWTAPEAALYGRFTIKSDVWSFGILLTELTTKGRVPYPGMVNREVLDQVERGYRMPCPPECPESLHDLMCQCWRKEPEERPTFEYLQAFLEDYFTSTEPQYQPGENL
Description: The antibody, covalently linked to 0.65-μm latex beads, is added to a suspension of insect cell lysis buffer comprised of 150 mM NaCl, 50 mM Tris pH 7.5, 1 mM DTT, 1% NP-40, 2 mM EGTA, 1 mM sodium vanadate, 1 mM PMSF, 1 μg/mL each of leupeptin, pepstatin, and aprotinin. […] At the end of the lysate incubation, the beads are rinsed 3 times in lysis buffer, resuspended in lysis buffer containing 10% glycerol, and frozen. These latex beads are thawed, rinsed 3 times in assay buffer which is comprised of 40 mM tris pH 7.5, 5 mM MgCl2, and suspended in the same buffer. […] The reaction is started at room temperature by addition of the ATP and quenched 10 minutes later by the addition of 125 μL of 30% TCA, 0.1M sodium pyrophosphate for 5 minutes on ice. The plate is then filtered and the wells washed with two 250-μL aliquots of 15% TCA, 0.1M pyrophosphate. The filters are punched, counted in a liquid scintillation counter, and the data examined for inhibitory activity in comparison to a known inhibitor such as erbstatin. The method is described more fully in J. Med. Chem., 37:598-609 (1994).

IC50 [1]: 70 nM
IC50 [2]: 63 nM
IC50 (C-src kinase): 15 nM
SMILES: CC[N+]([O-])(CC)CCOc1ccc(Nc2ncc3cc(-c4c(Cl)cccc4Cl)c(=O)n(C)c3n2)cc1 [Example 43, 6-(2,6-Dichlorophenyl)-2-[4-[2-(diethylamino)ethoxyl-thenyl]aminol-8-methyl-pyridor2,3-d]pyrimidin-7 (8H)-one, N^ω -oxide]
